Where two headings read alike, the source gives them in different places.
Target: T1, F508del (Homo sapiens, UniProt P13569, DEL508-508)
T1 construct: expressed in transfected cells
Experiment: Protocol 2: FRET membrane potential optical assay (VIPR), identification of correction compounds
Type: cell-based
In short: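 NIH3T3 mouse fibroblasts stably expressing F508del-CFTR incubated with compound 16 h at 37 °C in serum-free medium, then loaded with CC2-DMPE/DiSBAC2(3) FRET dyes. Channel activated with 10 μM forskolin plus 20 μM genistein in Cl⁻-free (gluconate) bath; depolarisation from Cl⁻ efflux read on VIPR II.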

[1] = Table 3, compounds of Table 1 as modulators of CFTR activity, protocol not stated
[2] = F508del CFTR modulator activity, compounds of Table 1, read-out: EC30

T1 sequence (P13569 with tags, fused parts or gaps DEL508-508): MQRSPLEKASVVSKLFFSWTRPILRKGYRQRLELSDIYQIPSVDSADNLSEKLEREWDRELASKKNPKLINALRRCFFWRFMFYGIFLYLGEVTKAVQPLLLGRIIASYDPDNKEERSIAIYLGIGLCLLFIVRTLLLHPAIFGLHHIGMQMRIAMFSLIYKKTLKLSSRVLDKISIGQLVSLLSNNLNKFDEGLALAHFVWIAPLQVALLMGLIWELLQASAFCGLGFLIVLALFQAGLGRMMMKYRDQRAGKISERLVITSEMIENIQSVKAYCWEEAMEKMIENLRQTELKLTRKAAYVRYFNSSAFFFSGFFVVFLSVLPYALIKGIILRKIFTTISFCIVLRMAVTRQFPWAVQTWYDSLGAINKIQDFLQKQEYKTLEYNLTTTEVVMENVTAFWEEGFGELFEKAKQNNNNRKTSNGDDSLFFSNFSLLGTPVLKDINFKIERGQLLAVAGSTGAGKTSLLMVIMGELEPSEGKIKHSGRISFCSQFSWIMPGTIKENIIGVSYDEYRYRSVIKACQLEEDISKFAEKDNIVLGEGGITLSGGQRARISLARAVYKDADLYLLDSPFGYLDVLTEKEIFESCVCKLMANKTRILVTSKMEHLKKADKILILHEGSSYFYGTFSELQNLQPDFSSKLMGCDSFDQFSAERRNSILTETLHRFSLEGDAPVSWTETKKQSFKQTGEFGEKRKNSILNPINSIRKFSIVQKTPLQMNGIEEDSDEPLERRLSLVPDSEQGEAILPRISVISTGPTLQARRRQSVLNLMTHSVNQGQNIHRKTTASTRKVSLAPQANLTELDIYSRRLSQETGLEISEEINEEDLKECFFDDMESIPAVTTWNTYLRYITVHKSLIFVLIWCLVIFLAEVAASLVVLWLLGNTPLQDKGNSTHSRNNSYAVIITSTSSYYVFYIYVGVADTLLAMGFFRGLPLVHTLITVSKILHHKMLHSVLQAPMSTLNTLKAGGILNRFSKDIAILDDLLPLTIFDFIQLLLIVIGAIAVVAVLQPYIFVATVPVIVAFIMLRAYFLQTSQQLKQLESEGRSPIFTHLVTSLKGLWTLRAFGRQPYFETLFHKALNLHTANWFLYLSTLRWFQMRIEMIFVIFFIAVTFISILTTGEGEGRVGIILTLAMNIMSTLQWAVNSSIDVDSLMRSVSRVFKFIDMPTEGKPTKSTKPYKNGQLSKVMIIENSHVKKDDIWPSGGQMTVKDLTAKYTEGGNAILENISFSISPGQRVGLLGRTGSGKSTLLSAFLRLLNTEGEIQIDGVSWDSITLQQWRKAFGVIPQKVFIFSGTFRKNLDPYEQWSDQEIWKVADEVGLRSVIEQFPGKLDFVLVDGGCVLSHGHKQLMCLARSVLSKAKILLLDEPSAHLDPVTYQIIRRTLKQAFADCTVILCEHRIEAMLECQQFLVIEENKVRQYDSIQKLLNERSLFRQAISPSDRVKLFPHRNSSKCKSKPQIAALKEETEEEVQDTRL

Row | EC30 [1] | EC30 [2] [nM] | Compound
1 | +++ (“+++” means <3 uM) | – | Cc1cc(C)c(Cn2nc(-c3c(C)cccc3C)cc2C(=O)NS(=O)(=O)c2cccc(N)c2)c(C)c1 [Compound 209, N-(3-aminophenyl) sulfonyl-5-(2,6-dimethylphenyl)-2-[(2,4,6-trimethylphenyl)methyl]pyrazole-3-carboxamide]
2 | – | < 3000 | COc1ccc(-c2ccc(C(=O)NS(=O)(=O)c3cccnc3N)c(N3C[C@@H](C)CC3(C)C)n2)cc1OC [Compound 2664, N-[(2-amino-3-pyridyl)sulfonyl]-6-(3,4-dimethoxyphenyl)-2-[(4S)-2,2,4-trimethylpyrrolidin-1-yl]pyridine-3-carboxamide]
3 | +++ (“+++” means <3 uM) | – | COc1cccc2c1cc(C(=O)NS(=O)(=O)c1ccncc1)n2Cc1c(C)cc(C)cc1C [Compound 36, 4-methoxy-N-(4-pyridylsulfonyl)-1-[(2,4,6-trimethylphenyl)methyl]indole-2-carboxamide]
4 | +++ (“+++” means <3 uM) | – | Cc1ccc(Oc2nc(C(C)(C)C)ccc2C(=O)NS(=O)(=O)c2cccc(N)c2)c(C)c1 [Compound 251, N-(3-aminophenyl)sulfonyl-6-tert-butyl-2-(2,4-dimethylphenoxy)pyridine-3-carboxamide]
5 | – | 3000 to 10000 | CC1CN(c2ncccc2C(=O)NS(=O)(=O)c2cccc(N(C)CCc3cccnc3)n2)C(C)(C)C1 (stereo not drawn) [Compound 2005, N—[[6-[methyl-[2-(3-pyridyl)ethyl]amino]-2-pyridyl]sulfonyl]-2-(2,2,4-trimethylpyrrolidin-1-yl)pyridine-3-carboxamide]
6 | – | < 3000 | CCOc1nn(-c2ccc(C(=O)NS(=O)(=O)c3cccnc3N)c(N3C[C@@H](C)CC3(C)C)n2)cc1C [Compound 2248, N-[(2-amino-3-pyridyl)sulfonyl]-6-(3-ethoxy-4-methyl-pyrazol-1-yl)-2-[(4S)-2,2,4-trimethylpyrrolidin-1-yl]pyridine-3-carboxamide]
7 | +++ (“+++” means <3 uM) | – | COc1ncccc1S(=O)(=O)NC(=O)c1ccc(C(C)(C)C)nc1Oc1ccc(C)cc1C [Compound 89, 6-tert-butyl-2-(2,4-dimethylphenoxy)-N-[(2-methoxy-3-pyridyl)sulfonyl]pyridine-3-carboxamide]
8 | – | < 3000 | CC1CN(c2ncc(-c3ccc(Cl)cc3)cc2C(=O)NS(=O)(=O)c2cccc(N)n2)C(C)(C)C1 (stereo not drawn) [Compound 2399, N-[(6-amino-2-pyridyl)sulfonyl]-5-(4-chlorophenyl)-2-(2,2,4-trimethylpyrrolidin-1-yl)pyridine-3-carboxamide]
9 | +++ (“+++” means <3 uM) | – | COc1cccc(S(=O)(=O)NC(=O)c2ccc(C(C)(C)C)nc2Oc2c(C)cc(C)cc2C)c1 [Compound 56, 6-tert-butyl-N-(3-methoxyphenyl)sulfonyl-2-(2,4,6-trimethylphenoxy)pyridine-3-carboxamide]
10 | – | 3000 to 10000 | C[C@@H]1CN(c2nc(C3=CCCN(C(=O)CC(C)(C)C)C3)ccc2C(=O)NS(=O)(=O)c2cccc(N)n2)C(C)(C)C1 [Compound 2650, N-[(6-amino-2-pyridyl)sulfonyl]-6-[1-(3,3-dimethylbutanoyl)-3,6-dihydro-2H-pyridin-5-yl]-2-[(4S)-2,2,4-trimethylpyrrolidin-1-yl]pyridine-3-carboxamide]
11 | – | < 3000 | CC1CN(c2ncccc2C(=O)NS(=O)(=O)c2cccc(Nc3ccc(-c4ccccc4)cc3)n2)C(C)(C)C1 (stereo not drawn) [Compound 2023, N—[[6-(4-phenylanilino)-2-pyridyl]sulfonyl]-2-(2,2,4-trimethylpyrrolidin-1-yl)pyridine-3-carboxamide]
12 | +++ (“+++” means <3 uM) | – | CC(C)Oc1ccc(-c2ccc(C(=O)NS(=O)(=O)c3cccc(N)n3)c(N3CCC(c4ccccc4)C3C)n2)cn1 (stereo not drawn) [Compound 625, N-[(6-amino-2-pyridyl)sulfonyl]-6-(6-isopropoxy-3-pyridyl)-2-(2-methyl-3-phenyl-pyrrolidin-1-yl)pyridine-3-carboxamide]
13 | – | < 3000 | CC(C)Oc1cccc(-c2ccc(C(=O)NS(=O)(=O)c3cccnc3N)c(N3C[C@@H](C)CC3(C)C)n2)c1 [Compound 2515, N-[(2-amino-3-pyridyl)sulfonyl]-6-(3-isopropoxyphenyl)-2-[(4S)-2,2,4-trimethylpyrrolidin-1-yl]pyridine-3-carboxamide]
14 | +++ (“+++” means <3 uM) | – | CC1CC(C)N(c2nc(-c3ccc(OC(C)C)nc3)ccc2C(=O)NS(=O)(=O)c2cccc(N)n2)C1 (stereo not drawn) [Compound 689, N-[(6-amino-2-pyridyl)sulfonyl]-2-(2,4-dimethylpyrrolidin-1-yl)-6-(6-isopropoxy-3-pyridyl)pyridine-3-carboxamide]
15 | +++ (“+++” means <3 uM) | – | Cc1cc(C)c(Cn2c(C(=O)NS(=O)(=O)c3cccc(N)c3)nc3ccccc32)c(C)c1 [Compound 71, N-(3-aminophenyl)sulfonyl-1-[(2,4,6-trimethylphenyl)methyl]benzimidazole-2-carboxamide]
16 | – | < 3000 | Cc1ccc(-c2ccc(C(=O)NS(=O)(=O)c3cccnc3N)c(N3C[C@@H](C)CC3(C)C)n2)cc1 [Compound 2132, N-[(2-amino-3-pyridyl)sulfonyl]-6-(p-tolyl)-2-[(4S)-2,2,4-trimethylpyrrolidin-1-yl]pyridine-3-carboxamide]
17 | – | < 3000 | CCOc1ccc(F)cc1-c1ccc(C(=O)NS(=O)(=O)c2cccnc2N)c(N2C[C@@H](C)CC2(C)C)n1 [Compound 2071, N-[(2-amino-3-pyridyl)sulfonyl]-6-(2-ethoxy-5-fluoro-phenyl)-2-[(4S)-2,2,4-trimethylpyrrolidin-1-yl]pyridine-3-carboxamide]
18 | ++ (“++” means between 3 uM and 10 uM) | – | Cc1cc(C)c(Oc2nc(-c3cccc4nn(C)cc34)ccc2C(=O)NS(=O)(=O)c2cccc(N)n2)c(C)c1 [Compound 451, N-[(6-amino-2-pyridyl)sulfonyl]-6-(2-methylindazol-4-yl)-2-(2,4,6-trimethylphenoxy)pyridine-3-carboxamide]
19 | +++ (“+++” means <3 uM) | – | C[C@@H]1CC[C@H](C)N1c1nc(-c2ccc(OCC3(C)CC3)nc2)ccc1C(=O)NS(=O)(=O)c1cccc(N)n1 [Compound 454, N-[(6-amino-2-pyridyl)sulfonyl]-2-[(2S,5R)-2,5-dimethylpyrrolidin-1-yl]-6-[6-[(1-methylcyclopropyl)methoxy]-3-pyridyl]pyridine-3-carboxamide]
20 | +++ (“+++” means <3 uM) | – | CC(C)Oc1ccc(-c2ccc(C(=O)NS(=O)(=O)c3cccc(N)n3)c(N3CCCC3c3ccccc3)n2)cn1 (stereo not drawn) [Compound 509, N-[(6-amino-2-pyridyl)sulfonyl]-6-(6-isopropoxy-3-pyridyl)-2-(2-phenylpyrrolidin-1-yl)pyridine-3-carboxamide]
21 | – | < 3000 | CCOc1ccc(C)cc1-c1ccc(C(=O)NS(=O)(=O)c2ccc[nH]c2=O)c(N2C[C@@H](C)CC2(C)C)n1 [Compound 2410, 6-(2-ethoxy-5-methyl-phenyl)-N-[(2-oxo-1H-pyridin-3-yl)sulfonyl]-2-[(4S)-2,2,4-trimethylpyrrolidin-1-yl]pyridine-3-carboxamide]
22 | ++ (“++” means between 3 uM and 10 uM) | – | Cc1cc(C)c(Oc2nc(C(F)(F)F)ccc2C(=O)NS(=O)(=O)c2cccc(N)n2)c(C)c1 [Compound 175, N-[(6-amino-2-pyridyl)sulfonyl]-6-(trifluoromethyl)-2-(2,4,6-trimethylphenoxy)pyridine-3-carboxamide]
23 | – | < 3000 | CC1CN(c2ncccc2C(=O)NS(=O)(=O)c2cccc(Nc3ccc(F)c(C#N)c3)n2)C(C)(C)C1 (stereo not drawn) [Compound 2316, N—[[6-(3-cyano-4-fluoro-anilino)-2-pyridyl]sulfonyl]-2-(2,2,4-trimethylpyrrolidin-1-yl)pyridine-3-carboxamide]
24 | +++ (“+++” means <3 uM) | – | COc1ccc(S(=O)(=O)NC(=O)c2ccc(C(C)(C)C)nc2-c2ccc(C)cc2)cc1 [Compound 206, 6-tert-butyl-N-(4-methoxyphenyl)sulfonyl-2-(p-tolyl)pyridine-3-carboxamide]
25 | ++ (“++” means between 3 uM and 10 uM) | – | Cc1cc(C)c(Cn2c(C(=O)NS(=O)(=O)c3cc(N)ccn3)cc3ccccc32)c(C)c1 [Compound 23, N-[(4-amino-2-pyridyl)sulfonyl]-1-[(2,4,6-trimethylphenyl)methyl]indole-2-carboxamide]
26 | – | < 3000 | CC1CN(c2ncccc2C(=O)NS(=O)(=O)c2cccc(N3CCCC(Cc4ccccc4)C3)n2)C(C)(C)C1 (stereo not drawn) [Compound 2297, N—[[6-(3-benzyl-1-piperidyl)-2-pyridyl]sulfonyl]-2-(2,2,4-trimethylpyrrolidin-1-yl)pyridine-3-carboxamide]

Row | Compound | EC30 [1] | EC30 [2] [nM]
27 | Cc1cc(C)c(Oc2nc(-c3ccc(OCC(C)C)cc3)ccc2C(=O)NS(=O)(=O)c2cccc(N)n2)c(C)c1 [Compound 320, N-[(6-amino-2-pyridyl)sulfonyl]-6-(4-isobutoxyphenyl)-2-(2,4,6-trimethylphenoxy)pyridine-3-carboxamide] | +++ (“+++” means <3 uM) | –
28 | CC(C)COc1cc(F)cc(-c2ccc(C(=O)NS(=O)(=O)c3ccn[nH]3)c(N3CCCC(C)C3)n2)c1 (stereo not drawn) [Compound 756, 6-(3-fluoro-5-isobutoxy-phenyl)-2-(3-methyl-1-piperidyl)-N-(1H-pyrazol-5-ylsulfonyl)pyridine-3-carboxamide] | +++ (“+++” means <3 uM) | –
29 | CC(C)COc1cc(F)cc(-c2ccc(C(=O)NS(=O)(=O)N3CC[C@H](F)C3)c(N3C[C@@H](C)CC3(C)C)n2)c1 [Compound 2228, 6-(3-fluoro-5-isobutoxy-phenyl)-N-[(3S)-3-fluoropyrrolidin-1-yl]sulfonyl-2-[(4S)-2,2,4-trimethylpyrrolidin-1-yl]pyridine-3-carboxamide] | – | < 3000
30 | CC1CN(c2ncccc2C(=O)NS(=O)(=O)c2cccc(OC3CCC[C@@H]3C)n2)C(C)(C)C1 (stereo in doubt) [Compound 2109, N—[[6-[(1S,2S)-2-methylcyclopentoxy]-2-pyridyl]sulfonyl]-2-(2,2,4-trimethylpyrrolidin-1-yl)pyridine-3-carboxamide] | – | < 3000

Source: US10758534B2 (Vertex Pharmaceuticals Incorporated, priority 2014, dated 2020)
